COC(=O)Nc1ccc(C)c(NC(=O)OC)c1
Details	solubility (mole fraction)
in di(2-ethylhexyl) phthalate, 334.25 K	0.167
in di(2-ethylhexyl) phthalate, 346.95 K	0.172
in di(2-ethylhexyl) phthalate, 363.65 K	0.178
in di(2-ethylhexyl) phthalate, 378.65 K	0.186
in di(2-ethylhexyl) phthalate, 389.55 K	0.195
in di(2-ethylhexyl) phthalate, 398.15 K	0.2
in dimethyl carbonate, 307.75 K	0.0087
in dimethyl carbonate, 316.15 K	0.013
in dimethyl carbonate, 324.35 K	0.0173
in dimethyl carbonate, 330.65 K	0.0216
in dimethyl carbonate, 335.85 K	0.0258
in dimethyl carbonate, 339.35 K	0.0299
in dimethyl carbonate, 343.65 K	0.0341
in dimethyl carbonate, 353.15 K	0.0423
in dimethyl carbonate, 360.75 K	0.0503
in dimethyl carbonate, 365.15 K	0.0535

Cc1ccc(N)cc1N
Details	solubility (mole fraction)
in di(2-ethylhexyl) phthalate, 312.45 K	0.061
in di(2-ethylhexyl) phthalate, 324.25 K	0.075
in di(2-ethylhexyl) phthalate, 332.52 K	0.0871
in di(2-ethylhexyl) phthalate, 340.05 K	0.0972
in di(2-ethylhexyl) phthalate, 349.75 K	0.108
in di(2-ethylhexyl) phthalate, 361.55 K	0.127
in dimethyl carbonate, 305.75 K	0.107
in dimethyl carbonate, 310.05 K	0.113
in dimethyl carbonate, 312.85 K	0.116
in dimethyl carbonate, 316.55 K	0.118
in dimethyl carbonate, 317.45 K	0.121
in dimethyl carbonate, 321.35 K	0.124
in dimethyl carbonate, 327.35 K	0.126
in dimethyl carbonate, 333.45 K	0.129

COC(=O)Nc1ccc(C)c(N)c1
Details	solubility (mole fraction)
in di(2-ethylhexyl) phthalate, 326.55 K	0.032
in di(2-ethylhexyl) phthalate, 333.75 K	0.0422
in di(2-ethylhexyl) phthalate, 341.65 K	0.0522
in di(2-ethylhexyl) phthalate, 349.95 K	0.062
in di(2-ethylhexyl) phthalate, 363.55 K	0.081
in di(2-ethylhexyl) phthalate, 391.85 K	0.0992
in dimethyl carbonate, 306.35 K	0.0339
in dimethyl carbonate, 314.25 K	0.0446
in dimethyl carbonate, 316.75 K	0.0499
in dimethyl carbonate, 320.65 K	0.0552
in dimethyl carbonate, 323.45 K	0.0604
in dimethyl carbonate, 328.25 K	0.0655
in dimethyl carbonate, 334.45 K	0.0706
in dimethyl carbonate, 341.85 K	0.0756

Source: BigSolDB 2.1
